Paper PMC10277484, “Bioactivity and nutritional quality of nutgall (Rhus semialata Murray), an underutilized fruit of Manipur” (Frontiers in Nutrition, 2023)

Experiments:
[1] = DPPH radical scavenging assay; assay type: biochemical; details: 30 min in the dark, 517 nm
Protocol: 0.1 mL of each of the five different concentrations of the extract was mixed with 1.9 mL DPPH reagent prepared in methanol (A517 = 1.1 + 0.01). The mixture was incubated for 30 min in the dark and then read at 517 nm. The radical scavenging activity (RSA) of each extract was calculated as follows ([26]).
RSA%=(Acontrol−Asample)/AcontrolX100%
From the RSA%, 50 inhibitory concentration (IC50) was calculated and expressed in μg/mL.

[2] = ABTS radical scavenging assay; assay type: biochemical; details: 30 min in the dark, 734 nm
Protocol: ABTS radical scavenging activity was performed as described by Singh et al. ([26]). The reaction mixture containing 0.1 mL of extract was mixed with 1.9 mL ABTS radical ([…] = 1.0 ± 0.01) then incubated for 30 min in the dark, and the absorbance was read at 734 nm. RSA and IC50 of the extract were calculated as described above.

Salmonella typhi = experiment: Kirby-Bauer disk diffusion antibacterial assay; assay type: cell-based; details: Salmonella enterica, 24 h, read-out: Inhibition zone, Salmonella typhi
Bacillus subtilis = experiment: Kirby-Bauer disk diffusion antibacterial assay; assay type: cell-based; details: 6 mm disc, extract 0.5 mg, chloramphenicol 0.025 mg, 24 h 37°C
Protocol: (§1) The Kirby-Bauer disk diffusion method ([31]) was used for the evaluation of the antibacterial activity of MExt. Four test organisms, viz.; Salmonella typhimurium (ATTC13311), Escherichia coli (MTCC 739), Bacillus subtilis (MTTCC 121), Staphylococcus aureus (ATCC 1026), were grown in Mueller-Hinton broth (MHB) at 37°C and 160 rpm and brought to its exponential phase. The sample was prepared by dissolving the MExt in 50% DMSO (at 25 mg/mL w/v concentration) and filtering through a (0.22 μm) syringe filter. Hundred microliter of each bacterial strain, equivalent to 0.5 McFarland turbidity were spread over sterile Mueller-Hinton agar (MHA) plate using a sterile swab. A 20 μL sample (0.5 mg) impregnated in a 6 mm sterile disc was seeded on the freshly spread MHA plates and incubated for 24 h at 37°C. Chloramphenicol 0.025 mg was used as a positive control. One reagent control containing the buffer and solvent used was also included in the experiment. The zone of inhibition was recorded using a Vernier caliper.

Escherichia coli = experiment: Kirby-Bauer disk diffusion antibacterial assay; assay type: cell-based; details: 6 mm disc, extract 0.5 mg, chloramphenicol 0.025 mg, 24 h 37°C, read-out: Inhibition zone, Eschericia coli
Protocol: as §1

Staphylococcus aureus = experiment: Kirby-Bauer disk diffusion antibacterial assay; assay type: cell-based; details: 6 mm disc, extract 0.5 mg, chloramphenicol 0.025 mg, 24 h 37°C
Protocol: as §1

[3] = test system: HeLa (human cervical cancer cell line); experiment: In vitro cytotoxicity, Sulforhodamine B (SRB) assay; assay type: cell-based; details: 48 h, read-out: IC50 against HeLa cells
Protocol: The cytotoxic activity of MExt was investigated using Sulforhodamine B colorimetric (SRB) assay against HeLa (human cervical cancer cell line). The cell was maintained in a Dulbecco’s Modified Eagle Medium (DMEM). […] The monolayer cells were then fixed with 10% Trichloroacetic acid (TCA) for 1 h at […] followed by washing with water. After drying, the cell plates were stained with SRB for 30 min and then washed with 1% acetic acid. The SRB dye bound to the protein was then dissolved by adding 10 mM Tris base (pH 10.5). The SRB dye released was quantified by taking absorbance at 510 nm in Varioskan Flash Multimode Reader (Thermo Fisher Scientific, United States) ([32]).

SMILES: O=C1O[C@H]([C@@H](O)CO)C(O)=C1O [Ascorbic acid]
- DPPH (IC50) [1]: 3 µg/mL
- DPPH (IC50) ([1]; listed as Vitamin C): 5.40 ± 0.30 µg/mL
- ABTS (IC50) [2]: 5.4 µg/mL
- ABTS (IC50) ([2]; listed as Vitamin C): 3.00 ± 0.40 µg/mL

SMILES: O=C(N[C@H](CO)[C@H](O)c1ccc([N+](=O)[O-])cc1)C(Cl)Cl [Chloramphenicol]
- zone of inhibition at 25 µg/disc (Salmonella typhi): 30 ± 2 mm
- zone of inhibition at 25 µg/disc (Bacillus subtilis): 30.2 ± 1.6 mm
- zone of inhibition at 25 µg/disc (Escherichia coli): 28 ± 2.2 mm
- zone of inhibition at 25 µg/disc (Staphylococcus aureus): 29 ± 1 mm

SMILES: COc1cccc2c1C(=O)c1c(O)c3c(c(O)c1C2=O)C[C@@](O)(C(=O)CO)C[C@@H]3O[C@H]1C[C@H](N)[C@H](O)[C@H](C)O1 [Doxorubicin]
- IC50 [3]: < 5 µg/mL
